{
  "source": "patent US9580521B1",
  "about": "“Process for making a poly(zwitterion/dianion)” (King Fahd University of Petroleum and Minerals, priority 2013, dated 2017)",
  "assay": "Inhibition of calcium sulfate (gypsum) scaling, conductivity measurements",
  "conditions": "20 ppm, supersaturated CaSO4 (3 CB); for 4, 9 and 5 screening by visual inspection under the same conditions",
  "protocol": "The concentration of reject brine (i.e., concentrated brine (CB)) is denoted as 1 CB.\nThe evaluation of the newly developed scale inhibitor PZA 6 was performed in 3 CB solutions supersaturated with respect to CaSO4 as confirmed from solubility data of CaSO4. To a solution of 6 CB calcium chloride (60 mL) containing PZA 6 (40 ppm i.e. 40 mg/L) at 40° C.±1° C. was added quickly a preheated (40° C.) solution of 6 CB sodium sulfate (60 mL). The resultant 3 CB solution containing 20 ppm of PZA 6 was stirred at 300 rpm using a magnetic stir-bar, and conductivity measurements were made at an interval of every 10 min initially to quantify the effectiveness of the newly developed antiscalant. The drop in conductivity indicates the precipitation of CaSO4. Induction time was measured with a decrease in conductivity when precipitation started. Visual inspection was carefully done to see any turbidity arising from precipitation.\nThe reject brine in the Reverse Osmosis process has dissolved salts which precipitate in the event of exceeding their solubility limits. […]\nA drop in conductivity is indicative of precipitation of CaSO4. […] To our satisfaction, there was no considerable change in conductivity for about 500 min, registering a 98% scale inhibition as calculated using eq 5: […]",
  "data": [
    {"smiles": "C=CC[N+](CC=C)(CCCP(=O)(OCC)OCC)CCCS(=O)(=O)[O-]", "note": "[Monomer 4, 3-[diallyl {3-(diethoxyphosphoryl)propyl}ammonio]propane-1-sulfonate]", "values": [
      {"measurement": "CaSO4 scale inhibition (in words)", "result": "neither monomers 4 and 9 nor polymer 5 gave any effective inhibition"}
    ]}
  ]
}
